According to patent publication US20030118577A1, “Use of analogues of superoxide dismutase for treating hepatocellular insufficiencies” (priority 2000, published 2003):

Assays:
[1] = tested on: acute hepatic insufficiency induced by acetaminophen; experiment: Survival of mice after intraperitoneal acetaminophen (acute hepatic insufficiency); details: for percentage of surviving animals: Group XV: APAP 1000 mg/kg, CuDIPS 10 mg/kg (P)
Protocol: The intraperitoneal injection of acetaminophen into mice induces a severe hepatotoxicity, the degree of which may be evaluated by the survival of the animals, measuring transaminase activities, and macroscopic and microscopic examination of the livers.
The acetaminophen in solution at 100 mg/ml in PBS at pH 7.4 is administered by the intraperitoneal route.
In a first series of experiments, a group of mice received a dose of 1000 mg/kg of acetaminophen; a second group received a dose of 1000 mg/kg of acetaminophen and a dose of 10 mg/kg of MnTBAP administered either 2 h before the acetaminophen or 6 h after; a control group received either MnTBAP alone (10 mg/kg), or PBS alone.
The survival of the animals is monitored for 24 hours after the administration of acetaminophen.
The effect of N-acetyl-L-cysteine (NAC), of CuDIPS, and of MnTBAP on the survival of mice after intraperitoneal injection of 1000 mg/kg of acetaminophen (APAP) was compared.
MnTBAP, NAC, or CuDIPS are administered in the form of a bolus, preventively, 2 hours before (P) or, curatively, 6 hours after (C) the acetaminophen.
The survival of the animals is monitored for 24 hours after administration of acetaminophen.

[2] = tested on: hepatic impairments resulting from the administration of galactosamine-LPS; details: prior administration; MIESEL et al. 1995; cited from earlier work
[3] = tested on: hepatic impairments induced by the administration of acetaminophen or of galactosamine; details: simultaneous administration; EP 0333490; cited from earlier work

## CC(C)c1cc(C(=O)[O-])c(O)c(C(C)C)c1.CC(C)c1cc(C(=O)[O-])c(O)c(C(C)C)c1.[Cu+2] [CuDIPS, Cu(II)-(diisopropylsalicylate)2]
[1]; APAP 1000 mg/kg, 2 hours before (P)
  effect on survival rate, administered preventively: does not significantly increase the survival rate
[1]; time 0 h
  percentage of surviving animals: 100%
[1]; time 6 h
  percentage of surviving animals: 100%
[1]; time 8 h
  percentage of surviving animals: 91.6%
[1]; time 9 h
  percentage of surviving animals: 83.3%
[1]; time 10 h
  percentage of surviving animals: 75%
[1]; time 11 h
  percentage of surviving animals: 58.3%
[1]; time 12 h
  percentage of surviving animals: 58.3%
[1]; time 13 h
  percentage of surviving animals: 41.6%
[1]; time 14 h
  percentage of surviving animals: 41.6%
[1]; time 15 h
  percentage of surviving animals: 41.6%
[1]; time 16 h
  percentage of surviving animals: 33.3%
[1]; time 17 h
  percentage of surviving animals: 33.3%
[1]; time 18 h
  percentage of surviving animals: 25%
[1]; time 20 h
  percentage of surviving animals: 25%
[1]; time 22 h
  percentage of surviving animals: 25%
[1]; time 24 h
  percentage of surviving animals: 25%

## C(=NCCCCN=Cc1ccccn1)c1ccccn1.[Cu+2].[O-][Cl+3]([O-])([O-])[O-] [CuPu(Py)2]
[2]
  hepatic impairments: reduced

## CuZnSOD: copper-zinc superoxide dismutases, also known by the name superoxide dismutase-1
[3]
  hepatic impairments: reduced
